Data taken from patent publication US20070243548A1, “Calumenin-directed diagnostics and therapeutics for cancer and chemotherapeutic drug resistance” (priority 2006, published 2007).
pEC50, pIC50: −log10 of the molar value. Read-outs that look alike come from different tables or passages of the source.

Legend:
Format in all cases: cell-based, human
[1] = test system: SKOV3 ovarian adenocarcinoma cell lines; assay: MTT cytotoxicity assay, calumenin-depleted SKOV3 cells; details: Table 3; calumenin-depleted SKOV3 vs mock siRNA-transfected cells
Procedure: (§1) For a typical siRNA transfection, […] of the annealed siRNA duplex was mixed with 1.4 ml of Opti-MEM reagent (Invitrogen). In another tube, […] of Oligofectamine reagent (Invitrogen, Carlsbad, Calif.) was mixed with […] of Opti-MEM. The two solutions were combined and mixed gently by inversion and incubated for 20 min. at RT. The resulting solution was added to the cultured cells drop by drop in a 10 cm dish (cells are approximately 40-50% confluent). The next day the transfected cells were trypsinized and seeded in 6 or 96-well plates and further incubated for the indicated amount of time (assay dependent) before further analysis.
(§2) Cell survival was determined using the MTT cytotoxicity assay (see, e.g., Tokuyama et al. (2005) Anticancer Res. 25(1A): 17-22). Small interfering RNA transfected cells were seeded in triplicate into 96-well plates at 5×10^3 cells/well 48 hrs post-transfection. The cells were incubated for an additional 16 to 24 hrs before they were exposed to increasing concentrations of cytotoxic drugs. Doxorubicin (adriamycin), cisplatin, taxol, vinblastine, vincristine, and mitoxantrone were all purchased from Sigma Corp. (St. Louis, Mo.). Stocks were made as follows: 6 mM for doxorubicin, 1.1 mM for vincristine and vinblastine; 1.1 mM for taxol, 50 mM for cisplatin both in DMSO; and 0.97 mM mitoxantrone in ethanol. Appropriate dilutions were made in the respective media for each cell line. Following addition of drugs, incubation was continued for an additional 72 hrs. […] of MTT dye (5 mg/ml) were added into each well and the plate was further incubated at 37° C. for 4 hrs. The dye was solubilized with 10% Triton X-100, 0.01 N HCl and further incubated at 37° C. in the dark for 30 min. Cell viability was determined by measure of absorption at 570 nm in a Wallac multiwell plate reader (PerkinElmer, Inc., Boston, Mass.). The averages of triplicate wells were plotted using the Prism software (GraphPad Software, Inc., San Diego, Calif.).

MCF-7 cells [2] = assay: cells; details: 72 hours post transfection
[3] = test system: MDA breast adenocarcinoma cell line; assay: MTT cytotoxicity assay, calumenin-depleted MDA cells; details: Table 3; calumenin-depleted MDA vs mock siRNA-transfected cells; NC = no change occurred
Procedure: as §1, §2

MCF-7 cells [4] = assay: cells; details: for fold more sensitive to drug / fold lower viability to drug treatment as compared to control cells: calumenin-depleted MCF-7 cells; for fold more sensitive to drug: FIGS. 6A and 6B; for pIC50: Homo sapiens, MCF7; for pIC50 / IC10: MCF-7 cells, determined from MTT experiments; for fold lower viability to drug treatment as compared to control cells: FIGS. 6C and 6D
Procedure: as §1, §2

MCF-7 cells [5] = assay: Clonogenic assay, siRNA-transfected MCF-7 cells; details: FIG. 7; for cell survival, calumenin-directed siRNA and drug treatment as compared to drug treatment alone: MCF-7, IC10 and IC90 drug concentrations
Procedure: A clonogenic assay generated additional information concerning cell viability after drug-resistant cells were exposed to siRNA and chemotherapeutics. Briefly, transfected MCF-7 cells were seeded in triplicate into 24-well plates at 5×10^3 cells/well 48 hrs post-transfection. The cells were incubated for an additional 16-24 hrs before they were exposed to increasing concentrations of cytotoxic drugs. […] The cells were further incubated for an additional 7 days. At the end of the incubation, the cells were stained with addition of a 0.5% Methylene Blue solution in 50% ethanol for 15 min. at RT. The staining solution was then removed and plates were dried overnight. The plates were scanned and the stained colonies were solubilized in 0.1% SDS. The absorbance of the resulting solution was determined by spectrophotometry at 660 nm. […] The same results were found for cells treated with vincristine and calumenin-directed siRNA as compared to vincristine alone (FIG. 7).

[6] = Homo sapiens, MCF7 cells transfected with calumenin-directed siRNA (table: vector expressing calumenin-encoding RNA), read-out: EC50, Calumenin
[7] = Homo sapiens, mock vector transfected MCF7 cells, read-out: EC50, Control
[8] = Table 2, calumenin vs control transfected MCF7 cells
[9] = Table 3, calumenin-depleted MCF-7 vs mock siRNA-transfected cells
[10] = calumenin depleted MCF-7, IC50 drug treatment level

| Structure (SMILES) | pEC50 (MCF-7 cells [2]; [6]) | pIC50 (MCF-7 cells [4]) | IS: increased sensitivity to the particular drug [1] [× IS] | pEC50 (MCF-7 cells [2]; [7]) | IS: increased sensitivity to the particular drug [3] [× IS] | IS: increased sensitivity to the particular drug (MCF-7 cells [4]; [8]) [× IS] | IS: increased sensitivity to the particular drug (MCF-7 cells [4]; [9]) [× IS] | fold more sensitive to drug (MCF-7 cells [4]) | IC10 (MCF-7 cells [4]) [nM] | fold lower viability to drug treatment as compared to control cells (MCF-7 cells [4]) [fold] | sensitivity of calumenin silenced MCF-7 cells to drug (MCF-7 cells [5]) | cell survival, calumenin-directed siRNA and drug treatment as compared to drug treatment alone (MCF-7 cells [5]) | more sensitive to drug than cells transfected with control siRNA (MCF-7 cells [5]; [10]) [%] | more sensitive to drug than cells transfected with control siRNA (MCF-7 cells [5]; calumenin depleted MCF-7, IC90 drug treatment level) [%] | pEC50 (MCF-7 cells [2]; MCF7 cells transfected with calumenin-directed siRNA (table: vector expressing calumenin-encoding RNA), read-out: EC50, Calumenin) | pEC50 (MCF-7 cells [2]; mock vector transfected MCF7 cells, read-out: EC50, Control) | more sensitive to drug than cells transfected with control siRNA (MCF-7 cells [5]; calumenin-directed siRNA transfected MCF-7, IC10 drug treatment level) [%] |
| --- | --- | --- | --- | --- | --- | --- | --- | --- | --- | --- | --- | --- | --- | --- | --- | --- | --- |
| COc1cccc2c1C(=O)c1c(O)c3c(c(O)c1C2=O)C[C@@](O)(C(=O)CO)C[C@@H]3O[C@H]1C[C@H](N)[C@H](O)[C@H](C)O1 [Doxorubicin] | 7.56 | – | 1.6 | 7.30 | 2.4 | 1.8 | 1.8 | two | – | – | – | – | – | – | – | – | – |
| CC[C@]1(O)C[C@@H]2CN(CCc3c([nH]c4ccccc34)[C@@](C(=O)OC)(c3cc4c(cc3OC)N(C)[C@H]3[C@@](O)(C(=O)OC)[C@H](OC(C)=O)[C@]5(CC)C=CCN6CC[C@]43[C@@H]65)C2)C1 [Vinblastine] | – | – | – | 11.83 | – | 656.9 | – | – | – | – | – | – | – | – | – | – | – |
| O=C1c2c(O)ccc(O)c2C(=O)c2c(NCCNCCO)ccc(NCCNCCO)c21 [Mitoxantrone] | 8.86 | – | 1.6 | 8.22 | 6 | 4.4 | 4.4 | four | – | – | – | – | – | – | – | – | – |
| CC(=O)O[C@@]12CO[C@@H]1C[C@H](O)[C@@]1(C)C(=O)[C@H](O)C3=C(C)[C@@H](OC(=O)[C@H](O)[C@@H](NC(=O)OC(C)(C)C)c4ccccc4)C[C@@](O)([C@@H](OC(=O)c4ccccc4)[C@H]21)C3(C)C [Docetaxel] | 11.33 | – | – | 11.01 | – | 2.1 | – | – | – | – | – | – | – | – | – | – | – |
| N.N.[Cl][Pt][Cl] [Cisplatin] | – | – | 3.3 | – | – | 8.5 | 8.5 | – | – | 9 | – | – | – | – | 5.65 | 4.72 | – |

The next lines start with results.

| pEC50 (MCF-7 cells [2]; [6]) | pIC50 (MCF-7 cells [4]) | Structure (SMILES) | IS: increased sensitivity to the particular drug [1] [× IS] | pEC50 (MCF-7 cells [2]; [7]) | IS: increased sensitivity to the particular drug [3] [× IS] | IS: increased sensitivity to the particular drug (MCF-7 cells [4]; [8]) [× IS] | IS: increased sensitivity to the particular drug (MCF-7 cells [4]; [9]) [× IS] | fold more sensitive to drug (MCF-7 cells [4]) | IC10 (MCF-7 cells [4]) [nM] | fold lower viability to drug treatment as compared to control cells (MCF-7 cells [4]) [fold] | sensitivity of calumenin silenced MCF-7 cells to drug (MCF-7 cells [5]) | cell survival, calumenin-directed siRNA and drug treatment as compared to drug treatment alone (MCF-7 cells [5]) | more sensitive to drug than cells transfected with control siRNA (MCF-7 cells [5]; [10]) [%] | more sensitive to drug than cells transfected with control siRNA (MCF-7 cells [5]; calumenin depleted MCF-7, IC90 drug treatment level) [%] | pEC50 (MCF-7 cells [2]; MCF7 cells transfected with calumenin-directed siRNA (table: vector expressing calumenin-encoding RNA), read-out: EC50, Calumenin) | pEC50 (MCF-7 cells [2]; mock vector transfected MCF7 cells, read-out: EC50, Control) | more sensitive to drug than cells transfected with control siRNA (MCF-7 cells [5]; calumenin-directed siRNA transfected MCF-7, IC10 drug treatment level) [%] |
| --- | --- | --- | --- | --- | --- | --- | --- | --- | --- | --- | --- | --- | --- | --- | --- | --- | --- |
| 11.56 | 9.60 | CC[C@]1(O)C[C@H]2CN(CCc3c([nH]c4ccccc34)[C@@](C(=O)OC)(c3cc4c(cc3OC)N(C=O)[C@H]3[C@@](O)(C(=O)OC)[C@H](OC(C)=O)[C@]5(CC)C=CCN6CC[C@]43[C@@H]65)C2)C1 [Vincristine] | 4 | 10.33 | 3.8 | 17.2 | 17 | – | 5000 | 17 | substantial increase | same results | 20 | 33 | – | – | – |
| 6.02 | – | COc1cc([C@@H]2c3cc4c(cc3[C@@H](O[C@@H]3O[C@@H]5CO[C@@H](C)O[C@H]5[C@H](O)[C@H]3O)[C@H]3COC(=O)[C@H]23)OCO4)cc(OC)c1O [Etoposide] | – | 5.92 | – | 1.3 | – | – | – | – | – | – | – | – | – | – | – |
| – | 7.00 | CC(=O)O[C@H]1C(=O)[C@@]2(C)[C@H]([C@H](OC(=O)c3ccccc3)[C@]3(O)C[C@H](OC(=O)[C@H](O)[C@@H](NC(=O)c4ccccc4)c4ccccc4)C(C)=C1C3(C)C)[C@]1(OC(C)=O)CO[C@@H]1C[C@@H]2O [Taxol] | 2.1 | – | 3.8 | 4130.2 | >10 | – | 1 | – | substantial increase | significantly decreased | 50 | – | – | – | 30 |
